The record followed here is publication PMC8292346, “Dysfunction of the key ferroptosis-surveilling systems hypersensitizes mice to tubular necrosis during acute kidney injury” (Nature Communications, 2021).

The nature of this experiment: Inhibited co-autoxidation of egg phosphatidylcholine liposomes and STY-BODIPY (radical-trapping antioxidant activity). The protocol: Inhibitors were then added (5 μl aliquots) at desired concentrations to the appropriate wells followed by vigorous mixing. […] Experiments were performed in triplicate using HPLC grade solvents and kinetic data is given as an average of three independent measurements. […]

On to “2,2,7,8-pentamethyl-6-chromanol [PMC, reference compound]”, for which the ΔSTY-BODIPY runs as follows: (time 53820 s) -0.366 µM; (time 53880 s) -0.3653 µM; (time 53940 s) -0.3652 µM; (time 54000 s) -0.3628 µM.
